In ChEMBL document CHEMBL1130781, “Structure-based design and synthesis of a series of hydroxamic acids with a quaternary-hydroxy group in P1 as inhibitors of matrix metalloproteinases” (Bioorg Med Chem Lett, 1998) one finds Ki data, which are given here for 17 molecules.

For assay [1], the target named is Matrix metalloproteinase-9 (Homo sapiens, UniProt P14780). Briefly: Binding affinity was evaluated against matrix metalloprotease-9.
The next assay has as its target T1, Interstitial collagenase (Homo sapiens, UniProt P03956).
T1 sequence (P03956 whole entry): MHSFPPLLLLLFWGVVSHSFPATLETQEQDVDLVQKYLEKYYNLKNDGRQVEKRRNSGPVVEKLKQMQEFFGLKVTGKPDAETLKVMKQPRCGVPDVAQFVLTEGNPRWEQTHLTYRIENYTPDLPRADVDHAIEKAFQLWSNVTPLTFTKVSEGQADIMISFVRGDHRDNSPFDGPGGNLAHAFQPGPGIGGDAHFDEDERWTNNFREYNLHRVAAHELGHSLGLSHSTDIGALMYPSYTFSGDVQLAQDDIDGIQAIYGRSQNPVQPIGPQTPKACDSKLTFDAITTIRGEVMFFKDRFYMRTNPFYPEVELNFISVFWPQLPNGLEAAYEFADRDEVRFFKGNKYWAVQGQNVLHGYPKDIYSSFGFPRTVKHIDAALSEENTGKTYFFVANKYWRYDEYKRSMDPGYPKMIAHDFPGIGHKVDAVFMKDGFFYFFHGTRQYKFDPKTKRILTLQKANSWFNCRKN
The experiment in a line: Binding affinity was evaluated against matrix metalloprotease-1.

In another assay the target is Stromelysin-1 (Homo sapiens, UniProt P08254). Briefly: Binding affinity against human matrix metalloprotease-3.
Sequence of Stromelysin-1 (P08254 whole entry): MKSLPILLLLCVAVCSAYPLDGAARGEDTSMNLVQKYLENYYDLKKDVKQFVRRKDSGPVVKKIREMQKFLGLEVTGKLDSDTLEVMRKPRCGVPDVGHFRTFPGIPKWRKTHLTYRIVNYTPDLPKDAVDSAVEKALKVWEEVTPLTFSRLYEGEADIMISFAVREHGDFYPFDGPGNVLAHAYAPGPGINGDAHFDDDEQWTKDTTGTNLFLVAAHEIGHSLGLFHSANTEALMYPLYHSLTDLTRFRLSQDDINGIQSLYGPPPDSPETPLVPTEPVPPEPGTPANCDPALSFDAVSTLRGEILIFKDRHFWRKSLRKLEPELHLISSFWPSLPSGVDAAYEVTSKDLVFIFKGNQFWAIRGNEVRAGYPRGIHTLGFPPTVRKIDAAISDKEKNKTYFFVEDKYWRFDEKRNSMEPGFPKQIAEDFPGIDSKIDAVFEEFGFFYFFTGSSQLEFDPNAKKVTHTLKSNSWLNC

Sequence of Matrix metalloproteinase-9 (P14780 whole entry): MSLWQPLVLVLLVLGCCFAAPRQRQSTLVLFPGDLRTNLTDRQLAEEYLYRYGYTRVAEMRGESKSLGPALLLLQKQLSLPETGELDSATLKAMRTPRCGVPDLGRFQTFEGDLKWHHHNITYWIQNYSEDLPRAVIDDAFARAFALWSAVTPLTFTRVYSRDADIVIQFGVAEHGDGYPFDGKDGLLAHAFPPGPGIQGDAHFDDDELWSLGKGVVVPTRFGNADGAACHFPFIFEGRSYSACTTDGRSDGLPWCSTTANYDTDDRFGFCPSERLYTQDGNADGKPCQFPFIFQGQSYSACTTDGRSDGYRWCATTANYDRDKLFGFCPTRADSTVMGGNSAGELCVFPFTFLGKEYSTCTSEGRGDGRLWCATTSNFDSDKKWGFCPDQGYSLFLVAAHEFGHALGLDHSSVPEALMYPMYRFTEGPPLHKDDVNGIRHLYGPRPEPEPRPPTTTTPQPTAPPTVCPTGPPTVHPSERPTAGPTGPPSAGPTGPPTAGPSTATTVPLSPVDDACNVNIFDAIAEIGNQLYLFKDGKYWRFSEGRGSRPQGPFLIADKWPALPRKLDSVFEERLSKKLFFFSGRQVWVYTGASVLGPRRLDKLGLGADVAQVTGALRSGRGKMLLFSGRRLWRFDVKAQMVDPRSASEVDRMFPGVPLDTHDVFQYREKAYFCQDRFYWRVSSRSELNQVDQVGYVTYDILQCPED

`CNC(=O)[C@H](CCCN)NC(=O)[C@H](CCCc1ccccc1)[C@@](C)(O)C(=O)NO`: the Ki in assay [1] amounted to 5 nM; at Interstitial collagenase, 18 nM; on Stromelysin-1, 103 nM.

In the case of `CNC(=O)[C@H](Cc1ccc(OC)cc1)NC(=O)[C@H](Cc1ccccc1)[C@@](C)(O)C(=O)NO`, the Ki in assay [1] was determined as 5 nM; at Interstitial collagenase, 85 nM; at Stromelysin-1, 526 nM.

As to `CNC(=O)[C@H](CCCNC(=O)OC(C)(C)C)NC(=O)[C@H](CCCc1ccccc1)[C@@](C)(O)C(=O)NO`, the Ki in assay [1] stood at 2 nM; at Interstitial collagenase, 16 nM; on Stromelysin-1 it was 13 nM.

`CNC(=O)[C@H](CCCNS(=O)(=O)N(C)C)NC(=O)[C@H](CCCc1ccccc1)[C@@](C)(O)C(=O)NO`: the Ki was determined as 2 nM in assay [1], 22 nM at Interstitial collagenase and 24 nM at Stromelysin-1.

Take `CNC(=O)[C@H](Cc1ccc(OC)cc1)NC(=O)[C@H](CCc1ccccc1)[C@@](C)(O)C(=O)NO`: the Ki in assay [1] turned out to be 2 nM; at Interstitial collagenase, 33 nM; on Stromelysin-1, 25 nM.

For `C[C@](O)(C(=O)NO)[C@@H](CCCc1ccccc1)C(=O)N[C@@H](Cc1ccccc1)C(=O)O`, the Ki in assay [1] is above 213 nM; at Interstitial collagenase it was 167 nM; on Stromelysin-1, 25 nM.

For `CNC(=O)[C@@H](NC(=O)[C@H](CCCc1ccccc1)[C@@](C)(O)C(=O)NO)C(C)(C)C`, the Ki in assay [1] was below 1 nM; at Interstitial collagenase it was 13 nM; at Stromelysin-1, 13 nM.

On to `CNC(=O)[C@H](Cc1ccc(OC)cc1)NC(=O)[C@H](CCCc1ccccc1)[C@@](C)(O)C(=O)NO`, for which the values for the Ki (in assay [1]; on Interstitial collagenase; on Stromelysin-1) were below 1 nM, 2 nM and 3 nM, respectively.

Take `C[C@@H](NC(=O)[C@H](CCCCN)NC(=O)[C@H](CCCc1ccccc1)[C@@](C)(O)C(=O)NO)c1ccccc1`: the figures for the Ki (in assay [1]; at Interstitial collagenase; at Stromelysin-1) were 149 nM, 282 nM and 168 nM, respectively.

With `CNC(=O)[C@H](Cc1ccc(OC)cc1)NC(=O)[C@H](CC(C)C)[C@@](C)(O)C(=O)NO`, the Ki in assay [1] is below 1 nM; on Interstitial collagenase, 0.6 nM; at Stromelysin-1 it was 13 nM.

In turn, `CNC(=O)[C@H](Cc1ccc(OC)cc1)NC(=O)[C@H](Cc1ccccc1)[C@](C)(O)C(=O)NO` registered a Ki at Stromelysin-1 above 10000 nM.

Turning to `CNC(=O)[C@H](CCCCN)NC(=O)[C@H](CCCc1ccccc1)[C@@](C)(O)C(=O)NO`, the Ki in assay [1] was below 1 nM; on Interstitial collagenase it was 15 nM; at Stromelysin-1, 32 nM.

As to `CNC(=O)[C@H](CCCNC(=O)N1CCOCC1)NC(=O)[C@H](CCCc1ccccc1)[C@@](C)(O)C(=O)NO`, the Ki in assay [1] stood at 4 nM; at Interstitial collagenase it was 53 nM; on Stromelysin-1 it was 70 nM.

Molecule `CNC(=O)[C@H](Cc1ccc(OC)cc1)NC(=O)[C@H](CC(C)C)[C@](C)(O)C(=O)NO` came in with a Ki on Stromelysin-1 above 10000 nM.

Take `C[C@](O)(C(=O)NO)[C@@H](CCCc1ccccc1)C(=O)N[C@@H](CCCCN)C(=O)NCCc1ccccc1`: the Ki in assay [1] was 1 nM; on Interstitial collagenase, 25 nM; on Stromelysin-1 it was 28 nM.

The molecule `CNC(=O)[C@H](Cc1ccc(OC)cc1)NC(=O)[C@H](CCc1ccccc1)[C@](C)(O)C(=O)NO` gave an inhibition constant Ki on Stromelysin-1 above 10000 nM.

In the case of `CC(C)(C)OC(=O)[C@H](Cc1ccccc1)NC(=O)[C@H](CCCc1ccccc1)[C@@](C)(O)C(=O)NO`, the Ki was determined as 34 nM in assay [1], 198 nM on Interstitial collagenase and 100 nM at Stromelysin-1.
